Measured values reported in patent US20200239530A1, “COMPOUNDS AND METHODS OF MODULATING PROTEIN DEGRADATION” (Vividion Therapeutics, Inc., priority 2017, published 2020).

What was measured:
Experiment in all cases: Cysteine liganding, probe competition
Assay type in all cases: binding
[1] = biological target: T1, FBXO30 F-box only protein 30 (Homo sapiens, UniProt Q8TB52)
T1 construct: Cells were resuspended in cold PBS on ice and sonicated with a probe sonicator to achieve lysis; endogenous in cells
T1 sequence (Q8TB52 1-745): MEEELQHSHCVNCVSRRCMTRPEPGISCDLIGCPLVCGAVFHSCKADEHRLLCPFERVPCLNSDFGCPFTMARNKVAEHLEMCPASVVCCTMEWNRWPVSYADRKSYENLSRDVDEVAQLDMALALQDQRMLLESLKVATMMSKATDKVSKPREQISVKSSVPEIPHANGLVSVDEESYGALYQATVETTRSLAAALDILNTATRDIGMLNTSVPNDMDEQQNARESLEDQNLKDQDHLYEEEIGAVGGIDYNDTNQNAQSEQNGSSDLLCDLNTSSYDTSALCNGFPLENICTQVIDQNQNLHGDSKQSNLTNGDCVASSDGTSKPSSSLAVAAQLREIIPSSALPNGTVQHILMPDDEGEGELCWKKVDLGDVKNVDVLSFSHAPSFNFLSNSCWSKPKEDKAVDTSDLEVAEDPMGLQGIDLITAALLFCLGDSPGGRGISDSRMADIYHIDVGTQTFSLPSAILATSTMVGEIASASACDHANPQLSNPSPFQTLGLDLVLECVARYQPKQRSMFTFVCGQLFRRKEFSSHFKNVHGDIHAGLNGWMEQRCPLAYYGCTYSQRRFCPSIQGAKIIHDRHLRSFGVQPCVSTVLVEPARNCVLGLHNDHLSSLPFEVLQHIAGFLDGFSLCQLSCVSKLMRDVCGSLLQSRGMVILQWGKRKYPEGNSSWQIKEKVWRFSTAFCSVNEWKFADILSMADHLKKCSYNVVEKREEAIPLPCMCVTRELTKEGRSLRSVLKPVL
Method in brief: (§1)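 Steps: sonicate cells in cold PBS; treat 5 mg/ml lysate with compound (25° C, 1 hr); add desthiobiotin iodoacetamide probe from a 10 mM stock (25° C, 1 hr); precipitate, reduce, alkylate, digest with trypsin; capture labelled peptides on streptavidin for analysis.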

[2] = biological target: T2, CDK16 Cyclin-dependent kinase 16 (Homo sapiens, UniProt Q00536); settings: for Liganded: CDK16 Res# 206, uniprot Q00536
T2 construct: 200 μL of lysate containing 5 mg/ml proteome was treated with 2 μL of 100× compound stock; endogenous in cells
T2 sequence (Q00536 whole entry): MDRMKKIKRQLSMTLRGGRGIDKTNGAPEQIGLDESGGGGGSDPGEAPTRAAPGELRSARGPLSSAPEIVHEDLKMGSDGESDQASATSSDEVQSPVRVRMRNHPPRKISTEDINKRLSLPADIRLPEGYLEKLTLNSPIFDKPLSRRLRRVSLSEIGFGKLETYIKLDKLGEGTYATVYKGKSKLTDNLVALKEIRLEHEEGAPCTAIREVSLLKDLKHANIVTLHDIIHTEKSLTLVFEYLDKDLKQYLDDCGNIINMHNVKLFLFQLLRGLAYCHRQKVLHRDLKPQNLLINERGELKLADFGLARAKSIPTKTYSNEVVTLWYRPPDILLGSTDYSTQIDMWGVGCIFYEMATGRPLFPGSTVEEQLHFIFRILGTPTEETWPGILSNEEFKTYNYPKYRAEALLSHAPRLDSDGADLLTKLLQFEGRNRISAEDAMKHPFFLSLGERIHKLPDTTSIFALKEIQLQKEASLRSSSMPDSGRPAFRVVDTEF
Method in brief: as §1

[3] = biological target: T3, PRMT5 Protein arginine N-methyltransferase 5 (Homo sapiens, UniProt O14744)
T3 construct: Cells were resuspended in cold PBS on ice and sonicated with a probe sonicator to achieve lysis; endogenous in cells
T3 sequence (O14744 whole entry): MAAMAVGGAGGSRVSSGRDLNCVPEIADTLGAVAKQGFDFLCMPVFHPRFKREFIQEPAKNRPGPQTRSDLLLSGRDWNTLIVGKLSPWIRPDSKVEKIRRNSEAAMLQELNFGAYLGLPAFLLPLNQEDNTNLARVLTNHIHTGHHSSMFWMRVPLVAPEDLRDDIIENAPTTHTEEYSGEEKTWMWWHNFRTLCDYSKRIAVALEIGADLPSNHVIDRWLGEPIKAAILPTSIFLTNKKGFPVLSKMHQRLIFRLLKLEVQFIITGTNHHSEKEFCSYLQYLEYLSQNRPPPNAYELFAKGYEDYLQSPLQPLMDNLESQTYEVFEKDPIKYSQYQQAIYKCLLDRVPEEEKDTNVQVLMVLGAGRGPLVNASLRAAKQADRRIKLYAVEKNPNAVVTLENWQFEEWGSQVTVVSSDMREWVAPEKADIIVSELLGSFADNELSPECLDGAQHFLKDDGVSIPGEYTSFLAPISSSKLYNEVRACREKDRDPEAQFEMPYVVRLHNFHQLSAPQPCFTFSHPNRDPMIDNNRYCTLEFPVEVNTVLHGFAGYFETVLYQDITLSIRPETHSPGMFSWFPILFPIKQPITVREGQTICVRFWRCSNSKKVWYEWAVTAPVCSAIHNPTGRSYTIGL
T3 sequence (Q9BQA1 whole entry partner): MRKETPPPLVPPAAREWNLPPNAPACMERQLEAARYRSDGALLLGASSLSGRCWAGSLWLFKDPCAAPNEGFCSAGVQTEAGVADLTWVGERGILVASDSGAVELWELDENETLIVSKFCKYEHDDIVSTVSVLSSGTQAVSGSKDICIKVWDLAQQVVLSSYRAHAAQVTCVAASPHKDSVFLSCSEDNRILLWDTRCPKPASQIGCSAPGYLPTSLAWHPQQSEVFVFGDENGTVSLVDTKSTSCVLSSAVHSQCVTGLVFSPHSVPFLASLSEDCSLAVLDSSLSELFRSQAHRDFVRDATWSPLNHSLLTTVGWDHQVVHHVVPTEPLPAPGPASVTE
Method in brief: as §1

[4] = biological target: T4, NUBP1 Cytosolic Fe—S cluster assembly factor NUBP1 (Homo sapiens, UniProt P53384); settings: for Liganded: NUBP1 Res# 31, uniprot P53384
T4 construct: Cells were resuspended in cold PBS on ice and sonicated with a probe sonicator to achieve lysis; endogenous in cells
T4 sequence (P53384 1-320): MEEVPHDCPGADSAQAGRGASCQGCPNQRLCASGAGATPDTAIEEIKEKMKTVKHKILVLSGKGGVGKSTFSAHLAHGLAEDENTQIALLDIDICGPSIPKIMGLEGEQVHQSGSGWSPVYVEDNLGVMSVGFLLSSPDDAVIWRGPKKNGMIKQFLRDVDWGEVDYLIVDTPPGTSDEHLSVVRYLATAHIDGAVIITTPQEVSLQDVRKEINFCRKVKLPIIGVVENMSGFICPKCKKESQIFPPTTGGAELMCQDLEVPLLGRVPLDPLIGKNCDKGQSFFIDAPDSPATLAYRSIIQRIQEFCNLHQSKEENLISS
Method in brief: as §1

[5] = biological target: T5, ANKRD54 Ankyrin repeat domain-containing protein 54 (Homo sapiens, UniProt Q6NXT1)
T5 construct: 200 μL of lysate containing 5 mg/ml proteome was treated with 2 μL of 100× compound stock; endogenous in cells
T5 sequence (Q6NXT1 whole entry, the tested form may be a part): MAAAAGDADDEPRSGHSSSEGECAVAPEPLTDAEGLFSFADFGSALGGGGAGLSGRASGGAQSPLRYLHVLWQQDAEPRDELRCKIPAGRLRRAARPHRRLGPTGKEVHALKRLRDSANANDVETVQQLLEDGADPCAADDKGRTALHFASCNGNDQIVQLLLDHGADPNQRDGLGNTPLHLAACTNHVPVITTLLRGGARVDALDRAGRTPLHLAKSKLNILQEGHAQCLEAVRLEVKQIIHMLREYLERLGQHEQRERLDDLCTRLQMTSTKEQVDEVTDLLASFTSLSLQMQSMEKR
Method in brief: as §1

**Q.** What does the source list for `COc1ccc2c(c1)CCCN2C(=O)CCl` [KB02]?
**A.** Liganded ([1]; FBXO30 Res# 725, uniprot Q8TB52): YES; Liganded [2]: YES; Liganded ([3]; PRMT5 Res# 278, uniprot O14744): YES; Liganded [4]: YES; Liganded ([5]; ANKRD54 Res# 230, uniprot Q6NXT1): YES

**Q.** How did the “100 Max” value ([1]; uniprot Q8TB52) turn out when `O=C(CCl)Nc1cc(C(F)(F)F)cc(C(F)(F)F)c1` [KBO3] was run?
**A.** The value was 10.4.

**Q.** And the 100 ave ([1]; uniprot Q8TB52)?
**A.** The 100 ave was 4.3.

**Q.** What about the 500 ave ([1]; uniprot Q8TB52) of the same compound?
**A.** The 500 ave was 25.0.

**Q.** What about the 500 Max ([1]; uniprot Q8TB52, unit assumed) of the same compound?
**A.** The 500 Max was 39.5%.

**Q.** And the Liganded [2]?
**A.** The Liganded was “YES”.

**Q.** What about the “100 Max” value ([2]; uniprot Q00536) of the same compound?
**A.** The value was 50.67.

**Q.** And the 100 ave ([2]; uniprot Q00536)?
**A.** Its 100 ave is 28.2075.

**Q.** And the 500 ave ([2]; uniprot Q00536)?
**A.** The 500 ave was 79.225.

**Q.** And the “500 Max” value ([2]; uniprot Q00536, in % (unit assumed))?
**A.** Its value is 80.44.

**Q.** And the 100 ave ([3]; uniprot O14744)?
**A.** Its 100 ave is 16.62.

**Q.** What about the “500 Max” value ([3]; uniprot O14744) of the same compound?
**A.** Its value is 45.47.

**Q.** And the 500 ave ([3]; uniprot O14744)?
**A.** Its 500 ave is 45.47.

**Q.** And the “100 Max” value ([3]; uniprot O14744, in % (unit assumed))?
**A.** The value was 16.62.

**Q.** And the Liganded [4]?
**A.** The Liganded was “YES”.

**Q.** What about the 100 ave ([4]; uniprot P53384) of the same compound?
**A.** Its 100 ave is 7.3775.

**Q.** What about the “500 Max” value ([4]; uniprot P53384) of the same compound?
**A.** The value was 75.8.

**Q.** And the 500 ave ([4]; uniprot P53384)?
**A.** Its 500 ave is 55.66.

**Q.** What about the “100 Max” value ([4]; uniprot P53384, in % (unit assumed)) of the same compound?
**A.** The value was 28.64.

**Q.** What about the “100 Max” value ([5]; uniprot Q6NXT1) of the same compound?
**A.** Its value is 7.02.

**Q.** And the 100 ave ([5]; uniprot Q6NXT1)?
**A.** The 100 ave was −0.72.

**Q.** And the “500 Max” value ([5]; uniprot Q6NXT1)?
**A.** Its value is 45.29.

**Q.** And the 500 ave ([5]; uniprot Q6NXT1)?
**A.** Its 500 ave is 44.21.
